This is an account of results in paper PMC5356016, “Suppression of Sin3A activity promotes differentiation of pluripotent cells into functional neurons” (Scientific Reports, 2017).

“Also recorded” adds a separate entry of the source.

The test system of one assay is P19 cells. Kind of assay: Neuronal differentiation of P19 cells (immunocytochemistry, western blot, RT-PCR). Type of assay: cell-based, mouse. Conditions: 30 μM TAT, 10 days, Tuj1 antibody.
The test system of assay [1] is Sin3A PAH1-REST interaction. Put plainly: Competitive ELISA, inhibition of PAH1-REST binding. Further details: species or system mouse. Conditions: peptide 0-100 μM pre-incubated 2 h, room temperature, GST-REST 2 μg/mL, mean ± s.d., n = 3.
The subject of assay [2] is mouse Sin3A PAH2 (residues 295–385). Kind of assay: Fluorescence polarization binding to Sin3A PAH2. The settings on record: 1 μM FITC-labeled peptide, PAH1 or PAH2 0-10 μM, 20 mM Tris-HCl, 150 mM NaCl, pH 7.5, 30 min, room temperature; ex 495/em 520 nm; mean ± s.d., n = 3. On the technique in general: Fluorescence polarisation rises when a labelled molecule tumbles more slowly, as on binding a larger partner.

In assay [3] the test system is Sin3A PAH2-REST interaction. Put plainly: Competitive ELISA, inhibition of PAH2-REST binding. Further details: species or system mouse. Conditions: peptide 0-100 μM pre-incubated 2 h, room temperature, GST-REST 2 μg/mL, mean ± s.d., n = 3. On the technique in general: In an ELISA, binding on a coated surface is turned into a signal by an enzyme label.
The next assay has as its target Sin3A PAH2. Conditions: Mad1 protein sequence 6–21, ref [34]; cited from earlier work. The text has this:
(§1) If this proposal is correct, a synthetic inhibitor of Sin3A-REST interactions should promote neurogenesis of these cells. Previous studies have shown that the N-terminal PAH1 and PAH2 domains of Sin3A bind to the N-terminal region of REST[6].

The test system of a further assay is Sin3A-REST interaction. Kind of assay: Co-immunoprecipitation of Sin3A and REST from P19 cell lysates. The assay is classed as biochemical, mouse. Conditions: peptide 0, 30, 60 μM, 2 h at 4 °C, anti-REST or anti-Sin3A immunoprecipitation, western blot, at least three experiments. Here is the method: We next examined whether the Mad1 and SAP25 peptides block the Sin3A-REST interaction. First, the ability of these peptides to inhibit the associations of PAH1 and PAH2 with REST was determined using ELISA. […] However, the Mad1 and SAP25 peptides had little effect on the respective PAH1-REST and PAH2-REST interactions. The cellular inhibitory activities of these peptides were then determined using an immunoprecipitation analysis. After incubating P19 cell lysates with several concentrations of SAP25 and MAD1 peptides, REST in the cell lysates was immunoprecipitated using the anti-REST antibody. The precipitates were probed using the anti-Sin3A antibody. […]
Figure 5 Inhibitory effect of the SAP25 and Mad1 peptides on binding of Sin3A PAH1 or PAH2 to REST. […] Binding of GST-REST to PAH1 and PAH2 was measured using the anti-GST antibody and HRP conjugated secondary antibody (mean ± s.d., n = 3). […] Immunoprecipitation was performed with antibodies against (c) REST and (d) Sin3A, and the amount of co-precipitated proteins was then determined using western blot analysis. ‘Un’ indicates no treatment with a peptide. […]
Fluorescence polarization assay […]
After washing with TBST, GST-REST (2 µg/mL) was added to the wells and then incubated for 2 h. The bound GST-REST to PAH1 or PAH2 was detected by using anti-GST antibody […]
(In general: In western blotting, separated proteins are transferred to a membrane and probed.)

The test system of assay [4] is mouse Sin3A PAH1 (residues 114–195). Put plainly: Fluorescence polarization binding to Sin3A PAH1. Conditions: 1 μM FITC-labeled peptide, PAH1 or PAH2 0-10 μM, 20 mM Tris-HCl, 150 mM NaCl, pH 7.5, 30 min, room temperature; ex 495/em 520 nm; mean ± s.d., n = 3.
A further assay addresses Sin3A PAH1. The settings on record: SAP25 protein sequence 171–186, ref [35]; cited from earlier work.
Description: as §1

For assay [5], the system named is voltage-gated sodium channels. The assay is classed as cell-based, mouse.
Assay [6] has as its system voltage-gated sodium channels. The assay is classed as cell-based, mouse. This is another data set of the same source.

What is called Kd is the concentration at which binding is half-saturated.

In the case of YGRKKRRQRRR [TAT], the “neuronal differentiation (in words), TAT control” value in the assay with P19 cells is recorded as “did not affect neuronal differentiation”.
RMNIQMLLEAADYLERX [Mad1 peptide]: the “inhibition of PAH1-REST binding (in words)” value in assay [1] is reported as “little effect”. Moreover, the “binding to Sin3A PAH2 (in words)” value in assay [2] is “interact with PAH2 much more strongly than PAH1”. Further, the “inhibition of PAH2-REST binding (in words)” value in [3] was “the level of inhibition of binding of PAH2 to REST by Mad1 was greater than that of SAP25 toward PAH1-REST interactions”. The Kd on Sin3A PAH2 is 29 nM. Besides, the “inhibition of Sin3A-REST interaction (in words)” value with Sin3A-REST interaction was “much greater ability to block interactions of Sin3A with REST than the SAP25 peptide; also recorded: has inhibitory activity against REST-Sin3A interactions in cells”.
As to AEMIALAGLLQMSQGEX [SAP25 peptide], in assay [1], the “inhibition of PAH1-REST binding (in words)” value is recorded as “the level of inhibition of binding of PAH2 to REST by Mad1 was greater than that of SAP25 toward PAH1-REST interactions”. Besides, in assay [3], the “inhibition of PAH2-REST binding (in words)” value is listed as “little effect”. The “binding to Sin3A PAH1 (in words)” value in [4] is “bind PAH1 much more tightly than PAH2”. In addition, the Kd on Sin3A PAH1 is 134 nM. Also, the “inhibition of Sin3A-REST interaction (in words)” value in the assay on Sin3A-REST interaction is “Mad1 peptide exhibited a much greater ability to block interactions of Sin3A with REST than the SAP25 peptide”.
As for `NC1=N[C@H](O)[C@H]2[C@H]3O[C@]4(O)O[C@@H]([C@@H](O)[C@@]2(N1)[C@@H]4O)[C@]3(O)CO` [TTX, tetrodotoxin], the “effect of TTX on current injection-promoted action potentials (in words)” value in assay [5] is “almost completely abrogated”. In assay [6], the “effect of TTX on action potentials elicited by current injections (in words)” value was “almost completely blocked”.
